Experimental data reported in US20150087627A1, “COMBINATION OF KINASE INHIBITORS AND USES THEREOF” (Intellikine LLC, priority 2011, published 2015).

Experiments:
Type in all cases: biochemical
PI3K β (p110β/p85α) = biological target: T1, PI3K β (p110β/p85α) (Homo sapiens, UniProt P42338); assay: PI 3-Kinase (human) HTRF assay, PI3K β; conditions: read-out: PI3K β IC50
T1 construct: purchased Upstate / Millipore Corporation

PI3K δ = biological target: T2, PI3K δ (Homo sapiens, UniProt O00329); assay: PI 3-Kinase (human) HTRF assay, PI3K δ; conditions: read-out: PI3K δ IC50
T2 construct: purchased Upstate / Millipore Corporation
T2 sequence (O00329 whole entry): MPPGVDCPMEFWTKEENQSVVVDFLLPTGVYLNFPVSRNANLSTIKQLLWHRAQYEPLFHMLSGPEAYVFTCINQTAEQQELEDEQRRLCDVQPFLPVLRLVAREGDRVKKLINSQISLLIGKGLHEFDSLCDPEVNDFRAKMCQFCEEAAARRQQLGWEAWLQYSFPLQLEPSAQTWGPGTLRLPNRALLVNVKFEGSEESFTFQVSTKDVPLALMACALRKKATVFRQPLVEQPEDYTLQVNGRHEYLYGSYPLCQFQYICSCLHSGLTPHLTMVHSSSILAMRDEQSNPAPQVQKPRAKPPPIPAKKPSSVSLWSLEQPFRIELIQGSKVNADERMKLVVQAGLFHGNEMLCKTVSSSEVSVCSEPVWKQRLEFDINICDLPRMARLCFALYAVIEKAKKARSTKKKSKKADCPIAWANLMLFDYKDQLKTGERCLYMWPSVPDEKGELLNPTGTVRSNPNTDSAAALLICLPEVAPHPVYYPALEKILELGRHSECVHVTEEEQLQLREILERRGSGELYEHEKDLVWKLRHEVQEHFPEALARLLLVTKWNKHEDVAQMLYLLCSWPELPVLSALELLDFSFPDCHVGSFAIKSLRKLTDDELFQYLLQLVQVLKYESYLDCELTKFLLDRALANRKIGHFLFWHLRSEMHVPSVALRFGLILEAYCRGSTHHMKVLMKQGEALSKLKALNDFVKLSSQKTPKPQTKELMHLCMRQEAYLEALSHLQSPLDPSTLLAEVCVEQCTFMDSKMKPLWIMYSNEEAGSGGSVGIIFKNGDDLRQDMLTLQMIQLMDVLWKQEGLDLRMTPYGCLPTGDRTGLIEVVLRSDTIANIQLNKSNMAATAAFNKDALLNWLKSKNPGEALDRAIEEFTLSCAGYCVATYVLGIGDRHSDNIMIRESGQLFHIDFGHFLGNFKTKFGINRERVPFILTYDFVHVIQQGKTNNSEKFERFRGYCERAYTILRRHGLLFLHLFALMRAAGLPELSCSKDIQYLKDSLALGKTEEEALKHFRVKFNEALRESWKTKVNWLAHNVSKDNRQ
T2 sequence (P27986 whole entry partner): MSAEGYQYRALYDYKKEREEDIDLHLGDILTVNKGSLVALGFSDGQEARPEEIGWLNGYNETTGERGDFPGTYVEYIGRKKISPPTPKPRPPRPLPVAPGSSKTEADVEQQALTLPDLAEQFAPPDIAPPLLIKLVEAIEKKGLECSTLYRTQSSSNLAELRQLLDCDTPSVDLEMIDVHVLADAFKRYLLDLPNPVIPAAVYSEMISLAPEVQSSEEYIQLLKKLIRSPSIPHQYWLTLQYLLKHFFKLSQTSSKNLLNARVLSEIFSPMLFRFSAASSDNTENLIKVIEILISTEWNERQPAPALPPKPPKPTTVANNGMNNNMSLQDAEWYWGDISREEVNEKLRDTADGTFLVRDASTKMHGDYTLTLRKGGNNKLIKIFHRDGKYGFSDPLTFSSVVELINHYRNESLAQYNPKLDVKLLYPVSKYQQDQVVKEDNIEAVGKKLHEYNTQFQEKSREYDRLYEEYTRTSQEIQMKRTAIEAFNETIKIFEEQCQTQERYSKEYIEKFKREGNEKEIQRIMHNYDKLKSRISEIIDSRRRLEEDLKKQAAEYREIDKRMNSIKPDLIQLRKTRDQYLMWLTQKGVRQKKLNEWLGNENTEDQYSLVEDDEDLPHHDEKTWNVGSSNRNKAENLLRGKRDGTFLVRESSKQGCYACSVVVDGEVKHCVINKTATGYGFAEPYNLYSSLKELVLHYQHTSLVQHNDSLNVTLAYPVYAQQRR

PI3K α (p110α/p85α) = biological target: T3, PI3K α (p110α/p85α) (Homo sapiens, UniProt P42336); assay: PI 3-Kinase (human) HTRF assay, PI3K α; conditions: read-out: PI3K α IC50
T3 construct: purchased Upstate / Millipore Corporation
T3 sequence (P42336 whole entry): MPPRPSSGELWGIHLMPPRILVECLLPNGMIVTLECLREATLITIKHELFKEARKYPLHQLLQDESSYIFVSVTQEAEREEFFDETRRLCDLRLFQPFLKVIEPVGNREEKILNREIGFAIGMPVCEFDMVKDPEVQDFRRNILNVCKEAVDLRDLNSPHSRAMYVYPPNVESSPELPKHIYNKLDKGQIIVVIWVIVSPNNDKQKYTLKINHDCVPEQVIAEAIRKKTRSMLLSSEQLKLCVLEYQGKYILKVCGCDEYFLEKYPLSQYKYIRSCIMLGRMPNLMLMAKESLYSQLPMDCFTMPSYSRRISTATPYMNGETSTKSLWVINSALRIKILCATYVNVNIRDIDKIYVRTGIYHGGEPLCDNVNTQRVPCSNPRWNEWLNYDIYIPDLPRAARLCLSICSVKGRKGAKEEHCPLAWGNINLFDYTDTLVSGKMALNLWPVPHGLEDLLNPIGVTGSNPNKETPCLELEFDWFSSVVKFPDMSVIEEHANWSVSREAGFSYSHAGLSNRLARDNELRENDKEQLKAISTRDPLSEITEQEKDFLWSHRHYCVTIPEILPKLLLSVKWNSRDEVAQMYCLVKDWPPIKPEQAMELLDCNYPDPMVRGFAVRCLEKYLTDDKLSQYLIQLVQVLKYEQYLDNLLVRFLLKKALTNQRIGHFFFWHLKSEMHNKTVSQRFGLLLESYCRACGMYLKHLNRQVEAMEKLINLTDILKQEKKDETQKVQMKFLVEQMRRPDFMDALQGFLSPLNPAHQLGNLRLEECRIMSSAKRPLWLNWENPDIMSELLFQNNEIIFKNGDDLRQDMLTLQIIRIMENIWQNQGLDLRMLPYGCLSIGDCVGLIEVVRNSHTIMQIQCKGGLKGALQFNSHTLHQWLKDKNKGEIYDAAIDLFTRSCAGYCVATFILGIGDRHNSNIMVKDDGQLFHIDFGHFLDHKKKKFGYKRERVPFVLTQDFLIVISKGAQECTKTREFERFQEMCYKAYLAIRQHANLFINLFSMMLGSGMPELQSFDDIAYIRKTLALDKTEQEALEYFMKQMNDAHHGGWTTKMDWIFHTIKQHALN
T3 sequence (P27986 whole entry partner): as the sequence (P27986 whole entry partner) above
Experimental: Briefly, the assay is a time resolved FRET assay that indirectly measures PIP3 product formed by the activity of a PI3-K. The kinase reaction is performed in a microtiter plate (e.g., a 384 well microtiter plate). The total reaction volume is approximately 20 ul per well. In the first step, each well receives 2 ul of test compound in 20% dimethylsulphoxide resulting in a 2% DMSO final concentration. […] The plate is sealed and incubated for 15 minutes at room temperature. […] The plate is sealed and incubated for 1 hour at room temperature. The reaction is stopped by adding 5 ul of Stop Solution per well and then 5 ul of Detection Mix is added per well. The plate is sealed, incubated for 1 hour at room temperature, and then read on an appropriate plate reader. Data is analyzed and IC50s are generated using GraphPad Prism 5.

T1 sequence (P42338 whole entry): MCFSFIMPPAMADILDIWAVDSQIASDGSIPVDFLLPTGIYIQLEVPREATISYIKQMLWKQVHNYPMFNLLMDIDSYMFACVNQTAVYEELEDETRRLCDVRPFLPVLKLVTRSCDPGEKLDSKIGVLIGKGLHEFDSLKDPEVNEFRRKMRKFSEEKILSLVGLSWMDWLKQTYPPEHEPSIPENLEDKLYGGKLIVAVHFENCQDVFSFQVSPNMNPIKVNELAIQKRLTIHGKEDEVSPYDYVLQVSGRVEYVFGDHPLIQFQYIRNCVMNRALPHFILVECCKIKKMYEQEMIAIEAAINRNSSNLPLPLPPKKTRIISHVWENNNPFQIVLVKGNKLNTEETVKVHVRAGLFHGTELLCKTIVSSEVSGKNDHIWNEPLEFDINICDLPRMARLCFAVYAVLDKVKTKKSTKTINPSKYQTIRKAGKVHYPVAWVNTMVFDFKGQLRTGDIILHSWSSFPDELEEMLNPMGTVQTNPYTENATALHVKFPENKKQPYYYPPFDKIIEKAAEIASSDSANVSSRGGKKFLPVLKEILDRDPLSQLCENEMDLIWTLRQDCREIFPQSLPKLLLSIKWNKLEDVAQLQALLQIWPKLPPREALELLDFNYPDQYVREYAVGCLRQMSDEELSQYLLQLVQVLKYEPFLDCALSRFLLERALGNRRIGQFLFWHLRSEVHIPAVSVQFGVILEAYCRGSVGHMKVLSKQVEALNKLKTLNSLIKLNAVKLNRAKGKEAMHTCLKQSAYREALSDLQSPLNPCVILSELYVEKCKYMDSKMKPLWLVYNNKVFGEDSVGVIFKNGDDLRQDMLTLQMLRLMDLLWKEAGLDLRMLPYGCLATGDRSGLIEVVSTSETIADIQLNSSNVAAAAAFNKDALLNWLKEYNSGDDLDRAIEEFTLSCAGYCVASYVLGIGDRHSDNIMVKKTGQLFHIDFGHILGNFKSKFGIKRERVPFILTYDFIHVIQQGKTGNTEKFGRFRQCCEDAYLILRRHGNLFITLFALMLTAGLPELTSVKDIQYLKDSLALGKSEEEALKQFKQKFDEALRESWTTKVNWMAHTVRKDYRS
T1 sequence (P27986 whole entry partner): as the sequence (P27986 whole entry partner) above

| Structure (SMILES) | IC50 (PI3K β (p110β/p85α)) [µM] | IC50 (PI3K δ) [µM] | IC50 (PI3K α (p110α/p85α)) [µM] |
| --- | --- | --- | --- |
| Nc1nc2cc(-c3ccc4ncc(N5CCN(C6CC6)CC5)nc4c3)ccc2o1 [Compound 261] | < 1 | > 10 | < 0.1 |
| CCN(CC)CCCn1cnc2ccc(-c3ccc4oc(N)nc4c3)cc2c1=O [Compound 281] | > 10 | < 10 | < 1 |
| NC(=O)[C@@H]1CCCN1C(=O)C1CN(c2cnc3ccc(-c4ccc5oc(N)nc5c4)cc3n2)C1 [Compound 283] | > 10 | > 10 | < 0.1 |
| NC(=O)[C@H]1CCCN1C(=O)C1CN(c2cnc3ccc(-c4ccc5oc(N)nc5c4)cc3n2)C1 [Compound 284] | < 10 | < 10 | < 0.1 |
| Nc1nc2cc(-c3ccc4ncc(C(=O)NCCN5CCCC5)n4c3)ccc2o1 [Compound 296] | < 10 | < 1 | < 1 |
| Nc1nc2cc(-c3ccc4nnc(-c5cccnc5)n4c3)ccc2o1 [Compound 300] | < 10 | > 10 | < 10 |
| CN(C)C1CCN(C(=O)c2cnc3ccc(-c4ccc5oc(N)nc5c4)cn23)CC1 [Compound 304] | > 10 | > 10 | < 1 |
| C[C@H]1CN(c2cnc3ccc(-c4ccc5nc(N)sc5c4)cc3n2)CCN1 [Compound 308] | < 1 | > 10 | < 1 |
| C[C@H]1CN(c2cnc3ccc(-c4cccc5c(N)nsc45)cc3n2)CCN1 [Compound 321] | > 10 | > 10 | > 10 |
| Nc1nc2cc(-c3ccc4ncc(N5CC(N6CCNC(=O)C6)C5)nc4c3)ccc2o1 [Compound 325] | < 1 | < 10 | < 0.1 |
| CC1(C)CN(c2cnc3ccc(-c4ccc5oc(N)nc5c4)cc3n2)CCN1 [Compound 336] | < 1 | < 10 | < 1 |
| C[C@H]1CN(c2cnc3cccc(-c4ccc5oc(N)nc5c4)c3n2)CCN1 [Compound 342] | > 10 | > 10 | > 10 |
| C[C@H]1CN(c2cnc3cccc(-c4ccc5nc(N)oc5c4)c3n2)CCN1 [Compound 343] | < 10 | > 10 | > 10 |
| Nc1nc2cc(-c3ccn4ncc(C(=O)N5CCCC5)c4c3)ccc2o1 [Compound 346] | < 10 | > 10 | < 0.1 |
| Cc1c(-c2ccc3oc(N)nc3c2)ccc2ncc(C(=O)N3CCOCC3)n12 [Compound 349] | > 10 | > 10 | > 10 |
| Cc1cc2oc(N)nc2cc1-c1ccc2ncc(C(=O)N3CCOCC3)n2c1 [Compound 352] | > 10 | > 10 | > 10 |
| Cc1cc(-c2ccc3oc(N)nc3c2)cc2c(C(=O)N3CCOCC3)cnn12 [Compound 357] | < 10 | < 10 | < 1 |
| Nc1nc2cc(-c3ccc4ncc(N5CC(N6CCOCC6)C5)nc4c3)cc(Cl)c2o1 [Compound 358] | < 1 | < 1 | < 0.1 |
| Nc1nc2cc(-c3ccc4ncc(C(=O)N5CCOCC5)n4c3)c(Cl)cc2o1 [Compound 370] | > 10 | > 10 | < 10 |

| Structure (SMILES) | IC50 (PI3K β (p110β/p85α)) [µM] | IC50 (PI3K δ) [µM] | IC50 (PI3K α (p110α/p85α)) [µM] |
| --- | --- | --- | --- |
| Nc1nc2cc(-c3ccc4ncc(C(=O)N5CCOCC5)n4c3)c(F)cc2o1 [Compound 372] | < 10 | < 10 | < 1 |
| Nc1nc2cc(-c3ccc4ncc(N5CC[C@@H](N6CCOCC6)C5)nc4c3)ccc2o1 [Compound 376] | < 10 | < 10 | < 0.1 |
| Cc1c(-c2ccc3oc(N)nc3c2)ccc2ncc(N3CC(N4CCNCC4)C3)nc12 [Compound 386] | > 10 | > 10 | < 0.1 |
| COCCN1CCN(c2cnc3ccc(-c4ccc5oc(N)nc5c4)cc3n2)CC1 [Compound 387] | < 1 | > 10 | < 0.1 |
| Nc1nc2cc(-c3ccc4ncc(C(=O)N5CCOCC5)n4c3)cnc2o1 [Compound 400] | < 10 | > 10 | < 0.1 |
| Nc1nc2cc(-c3nc4cc(-c5cccnc5)cnc4s3)ccc2o1 [Compound 402] | > 10 | > 10 | > 10 |
| Nc1nc2cc(-c3ccc4nc(N)c(N5CC(N6CCOCC6)C5)nc4c3)ccc2o1 [Compound 404] | > 10 | > 10 | > 10 |
| CS(=O)(=O)Nc1nc2cc(-c3ccc4ncc(C(=O)N5CCOCC5)n4c3)ccc2o1 [Compound 405] | > 10 | > 10 | > 10 |
| CNc1nc2cc(-c3ccc4ncc(C(=O)N5CCOCC5)n4c3)ccc2o1 [Compound 406] | < 10 | > 10 | < 10 |
| COc1ncc(-c2ccc3ncc(C(=O)N4CCOCC4)n3c2)cc1N [Compound 414] | > 10 | > 10 | < 10 |
| COc1ncc(-c2ccc3ncc(C(=O)N4CCOCC4)n3c2)cc1NS(=O)(=O)c1cccc(F)c1 [Compound 423] | < 1 | < 0.1 | < 0.1 |
| Nc1nc2cc(-c3ccc4[nH]nc(N)c4c3)ccc2o1 [Compound 427] | > 10 | > 10 | > 10 |
| CC(=O)Nc1n[nH]c2cc(-c3ccc4oc(N)nc4c3)ccc12 [Compound 430] | < 10 | > 10 | < 10 |
| CC(=O)Nc1n[nH]c2ccc(-c3ccc4oc(N)nc4c3)cc12 [Compound 431] | > 10 | > 10 | > 10 |
| Nc1nc2ccc(-c3cc(F)c4oc(N)nc4c3)cc2o1 [Compound 433] | < 1 | < 10 | < 1 |
| CC(=O)Nc1nc2ccc(-c3cc(F)c4oc(N)nc4c3)cc2s1 [Compound 434] | < 0.1 | < 0.1 | < 0.1 |
| Nc1nc2cc(-c3ccc4nc(N)sc4c3)cc(F)c2o1 [Compound 436] | < 0.1 | < 1 | < 0.1 |
| Nc1nc2cc(-c3cc(F)c4ncc(C(=O)N5CCOCC5)n4c3)ccc2o1 [Compound 438] | > 10 | > 10 | < 10 |
| O=C(c1cnc2ccc(-c3cccc(S(=O)(=O)Nc4ccccc4)c3)cn12)N1CCOCC1 [Compound 440] | > 10 | > 10 | > 10 |

| Structure (SMILES) | IC50 (PI3K β (p110β/p85α)) [µM] | IC50 (PI3K δ) [µM] | IC50 (PI3K α (p110α/p85α)) [µM] |
| --- | --- | --- | --- |
| O=C(c1cnc2ccc(-c3cccc(S(=O)(=O)Nc4cc(F)ccc4F)c3)cn12)N1CCOCC1 [Compound 441] | > 10 | > 10 | > 10 |
| COc1ccc(-c2ccc3ncc(C(=O)N4CCOCC4)n3c2)cc1S(=O)(=O)Nc1ccccc1 [Compound 444] | > 10 | > 10 | < 10 |
| O=C(c1cnc2ccc(-c3cncc(S(=O)(=O)Nc4ccccc4)c3)cn12)N1CCOCC1 [Compound 447] | > 10 | > 10 | < 10 |
| O=C(c1cnc2ccc(-c3cnc(Cl)c(NS(=O)(=O)c4ccccc4)c3)cn12)N1CCOCC1 [Compound 451] | < 1 | < 0.1 | < 0.1 |
| O=C(c1cnc2ccc(-c3cnc(Cl)c(NS(=O)(=O)c4ccccc4F)c3)cn12)N1CCOCC1 [Compound 452] | < 1 | < 0.1 | < 0.1 |
| COc1ccc(-c2ccc3ncc(C(=O)N4CCOCC4)n3c2)cc1NS(=O)(=O)c1ccccc1 [Compound 455] | > 10 | > 10 | < 10 |
| O=C(c1cnc2ccc(-c3ccc(Cl)c(NS(=O)(=O)c4ccccc4)c3)cn12)N1CCOCC1 [Compound 459] | > 10 | > 10 | < 1 |
| CN(C(=O)c1cnc2ccc(-c3ccc4oc(N)nc4c3)cn12)C1CCOCC1 [Compound 472] | < 10 | < 10 | < 0.1 |
| Nc1nc2cc(-c3ccc4ncc(C(=O)N5CC[C@@H](F)C5)n4c3)ccc2o1 [Compound 475] | > 10 | < 10 | < 0.1 |
| Nc1nc2cc(-c3ccc4ncc(C(=O)N5CC[C@@H](n6cccn6)C5)n4c3)ccc2o1 [Compound 477] | > 10 | < 10 | < 0.1 |
| Nc1nc2cc(-c3ccc4ncc(C(=O)N5CC[C@H](n6cccn6)C5)n4c3)ccc2o1 [Compound 478] | < 10 | < 1 | < 0.1 |
| C[C@@H]1CCCN1C(=O)c1cnc2ccc(-c3ccc4oc(N)nc4c3)cn12 [Compound 481] | < 10 | < 10 | < 0.1 |
| Nc1n[nH]c2cc(-c3ccc4ncc(C(=O)N5CCOCC5)n4c3)ccc12 [Compound 487] | > 10 | > 10 | > 10 |
| Nc1n[nH]c2c(-c3ccc4ncc(C(=O)N5CCOCC5)n4c3)cccc12 [Compound 490] | > 10 | > 10 | > 10 |
| Nc1nc2c(-c3ccc4ncc(C(=O)N5CCOCC5)n4c3)cccc2o1 [Compound 496] | < 10 | > 10 | < 1 |
| C[C@@H]1CN(C2CN(C(=O)c3cnc4ccc(-c5ccc6oc(N)nc6c5)cn34)C2)CCN1 [Compound 511] | < 10 | < 1 | < 0.1 |
| C[C@H]1CN(C2CN(C(=O)c3cnc4ccc(-c5ccc6oc(N)nc6c5)cn34)C2)CCN1C [Compound 512] | < 10 | < 1 | < 0.1 |
| CC1(C)COCCN1C(=O)c1cnc2ccc(-c3ccc4oc(N)nc4c3)cn12 [Compound 514] | > 10 | > 10 | < 1 |
| CC(C)N1CCC(n2cnc3ccc(-c4cnc(Cl)c(NS(=O)(=O)c5ccccc5)c4)cc3c2=O)CC1 [Compound 521] | < 0.1 | < 0.1 | < 0.1 |
